According to PubChem BioAssay (NCI):
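All cell lines were grown in 96-well plates and treated with compound for 48 hours. TGI marks complete inhibition of growth.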

Assays:
Assay in all cases: NCI anticancer screen, dose series, 48 h
[1] = test system: 786-0 renal
[2] = test system: A498 renal
[3] = test system: A549 NSCLC
[4] = test system: ACHN renal
[5] = test system: BT-549 breast
[6] = test system: CAKI-1 renal
[7] = test system: DU-145 prostate
[8] = test system: EKVX NSCLC
[9] = test system: HCC-2998 colon
[10] = test system: HCT-116 colon
[11] = test system: HCT-15 colon
[12] = test system: HL-60(TB) leukemia
[13] = test system: HOP-62 NSCLC
[14] = test system: HOP-92 NSCLC
[15] = test system: HS 578T breast
[16] = test system: HT29 colon
[17] = test system: IGROV1 ovarian
[18] = test system: K-562 leukemia
[19] = test system: KM12 colon
[20] = test system: LOX IMVI melanoma
[21] = test system: M14 melanoma
[22] = test system: MALME-3M melanoma
[23] = test system: MCF7 breast
[24] = test system: MDA-MB-435
[25] = test system: MDA-N
[26] = test system: MOLT-4 leukemia
[27] = test system: NCI-H226 lung
[28] = test system: NCI-H23 lung
[29] = test system: NCI-H460 lung
[30] = test system: NCI-H522 lung
[31] = test system: OVCAR-3 ovarian
[32] = test system: OVCAR-4 ovarian
[33] = test system: OVCAR-5 ovarian
[34] = test system: OVCAR-8 ovarian
[35] = test system: PC-3 prostate
[36] = test system: RPMI-8226 leukemia
[37] = test system: SF-268 CNS
[38] = test system: SF-295 CNS
[39] = test system: SK-MEL-2 melanoma
[40] = test system: SK-MEL-28 melanoma
[41] = test system: SK-MEL-5 melanoma
[42] = test system: SK-OV-3 ovarian
[43] = test system: SN12C renal
[44] = test system: SNB-19 CNS
[45] = test system: SNB-75 CNS
[46] = test system: SR leukemia
[47] = test system: SW-620 colon
[48] = test system: T-47D breast
[49] = test system: TK-10 renal
[50] = test system: UACC-257 melanoma
[51] = test system: UACC-62 melanoma
[52] = test system: UO-31 renal
[53] = test system: CCRF-CEM leukemia
[54] = test system: COLO 205 colon
[55] = test system: MDA-MB-231 breast
[56] = test system: NCI/ADR-RES ovarian
[57] = test system: RXF 393 renal
[58] = test system: SF-539 CNS
[59] = test system: U251 CNS

## Cc1c2cccc-2c(OCCOC(=O)n2ccnc2)cc2c1[nH]c1ccccc12
[1]
  TGI: 19.9 µM
[2]
  TGI: 21 µM
[3]
  TGI: 11 µM
[4]
  TGI: 7.27 µM
[5]
  TGI: 9.06 µM
[6]
  TGI: 17.8 µM
[7]
  TGI: 22 µM
[8]
  TGI: 4.18 µM
[9]
  TGI: 12.1 µM
[10]
  TGI: 10.3 µM
[11]
  TGI: 5.95 µM
[12]
  TGI: 5.46 µM
[13]
  TGI: 28.4 µM
[14]
  TGI: 4.28 µM
[15]
  TGI: > 100 µM
[16]
  TGI: 5.22 µM
[17]
  TGI: 6.23 µM
[18]
  TGI: 21.7 µM
[19]
  TGI: 4.65 µM
[20]
  TGI: 3.86 µM
[21]
  TGI: 10.5 µM
[22]
  TGI: 7.61 µM
[23]
  TGI: 19.5 µM
[24]
  TGI: 9.69 µM
[25]
  TGI: 17.5 µM
[26]
  TGI: 25.2 µM
[27]
  TGI: 8.13 µM
[28]
  TGI: 6.31 µM
[29]
  TGI: 18.1 µM
[30]
  TGI: 4.66 µM
[31]
  TGI: 4.64 µM
[32]
  TGI: 5.63 µM
[33]
  TGI: 7.51 µM
[34]
  TGI: 5.22 µM
[35]
  TGI: 3.48 µM
[36]
  TGI: 9.9 µM
[37]
  TGI: 5.8 µM
[38]
  TGI: 10.9 µM
[39]
  TGI: 5.48 µM
[40]
  TGI: 4.63 µM
[41]
  TGI: 5.68 µM
[42]
  TGI: 18.8 µM
[43]
  TGI: 5.89 µM
[44]
  TGI: 5.97 µM
[45]
  TGI: 3.02 µM
[46]
  TGI: > 100 µM
[47]
  TGI: 14.4 µM
[48]
  TGI: 8.15 µM
[49]
  TGI: 14.4 µM
[50]
  TGI: 6.24 µM
[51]
  TGI: 6.63 µM
[52]
  TGI: 3.39 µM

## COc1ccc(C2=NNC(c3cc4cc(Br)ccc4nc3Cl)C2)cc1 (configuration not stated)
[1]
  TGI: > 25 µM
[2]
  TGI: > 25 µM
[4]
  TGI: > 25 µM
[5]
  TGI: > 25 µM
[6]
  TGI: > 25 µM
[53]
  TGI: 5.28 µM
[54]
  TGI: > 25 µM
[7]
  TGI: > 25 µM
[8]
  TGI: > 25 µM
[9]
  TGI: > 25 µM
[10]
  TGI: > 25 µM
[12]
  TGI: 12.1 µM
[14]
  TGI: > 25 µM
[15]
  TGI: 24.2 µM
[16]
  TGI: > 25 µM
[17]
  TGI: > 25 µM
[18]
  TGI: > 25 µM
[19]
  TGI: > 25 µM
[21]
  TGI: > 25 µM
[23]
  TGI: > 25 µM
[24]
  TGI: > 25 µM
[25]
  TGI: 17.8 µM
[26]
  TGI: > 25 µM
[27]
  TGI: 11.8 µM
[28]
  TGI: > 25 µM
[29]
  TGI: > 25 µM
[31]
  TGI: > 25 µM
[32]
  TGI: > 25 µM
[33]
  TGI: > 25 µM
[35]
  TGI: > 25 µM
[36]
  TGI: > 25 µM
[39]
  TGI: > 25 µM
[40]
  TGI: > 25 µM
[43]
  TGI: > 25 µM
[45]
  TGI: > 25 µM
[46]
  TGI: > 25 µM
[47]
  TGI: > 25 µM
[48]
  TGI: > 25 µM
[50]
  TGI: > 25 µM
[51]
  TGI: > 25 µM
[52]
  TGI: > 25 µM

## COc1ccc(N2C(=O)C3c4[nH]c5ccccc5c4C4c5ccccc5CC4C3C2=O)cc1 (configuration not stated)
[1]
  TGI: > 100 µM
[2]
  TGI: > 100 µM
[3]
  TGI: > 100 µM
[4]
  TGI: > 100 µM
[5]
  TGI: > 100 µM
[6]
  TGI: > 100 µM
[53]
  TGI: > 100 µM
[54]
  TGI: > 100 µM
[7]
  TGI: > 100 µM
[8]
  TGI: > 100 µM
[9]
  TGI: > 100 µM
[10]
  TGI: > 100 µM
[11]
  TGI: > 100 µM
[12]
  TGI: > 100 µM
[13]
  TGI: > 100 µM
[14]
  TGI: > 100 µM
[16]
  TGI: > 100 µM
[17]
  TGI: > 100 µM
[18]
  TGI: > 100 µM
[19]
  TGI: > 100 µM
[20]
  TGI: > 100 µM
[21]
  TGI: > 100 µM
[22]
  TGI: > 100 µM
[23]
  TGI: > 100 µM
[55]
  TGI: > 100 µM
[24]
  TGI: > 100 µM
[25]
  TGI: > 100 µM
[26]
  TGI: > 100 µM
[27]
  TGI: > 100 µM
[28]
  TGI: > 100 µM
[29]
  TGI: > 100 µM
[30]
  TGI: > 100 µM
[56]
  TGI: > 100 µM
[31]
  TGI: > 100 µM
[32]
  TGI: > 100 µM
[33]
  TGI: > 100 µM
[34]
  TGI: > 100 µM
[35]
  TGI: > 100 µM
[57]
  TGI: > 100 µM
[37]
  TGI: > 100 µM
[38]
  TGI: > 100 µM
[58]
  TGI: > 100 µM
[39]
  TGI: > 100 µM
[40]
  TGI: > 100 µM
[42]
  TGI: > 100 µM
[43]
  TGI: > 100 µM
[44]
  TGI: > 100 µM
[45]
  TGI: > 100 µM
[46]
  TGI: > 100 µM
[47]
  TGI: > 100 µM
[48]
  TGI: > 100 µM
[49]
  TGI: > 100 µM
[59]
  TGI: > 100 µM
[50]
  TGI: > 100 µM
[51]
  TGI: > 100 µM
[52]
  TGI: > 100 µM

## C=CCOCn1ccc(N)nc1=O
[1]
  TGI: > 100 µM
[3]
  TGI: > 100 µM
[5]
  TGI: > 100 µM
[6]
  TGI: > 100 µM
[53]
  TGI: > 100 µM
[54]
  TGI: > 100 µM
[7]
  TGI: > 100 µM
[8]
  TGI: > 100 µM
[9]
  TGI: > 100 µM
[10]
  TGI: > 100 µM
[11]
  TGI: > 100 µM
[12]
  TGI: > 100 µM
[13]
  TGI: > 100 µM
[15]
  TGI: > 100 µM
[16]
  TGI: > 100 µM
[17]
  TGI: > 100 µM
[18]
  TGI: > 100 µM
[19]
  TGI: > 100 µM
[20]
  TGI: > 100 µM
[21]
  TGI: > 100 µM
[22]
  TGI: > 100 µM
[23]
  TGI: > 100 µM
[55]
  TGI: > 100 µM
[24]
  TGI: > 100 µM
[25]
  TGI: > 100 µM
[26]
  TGI: > 100 µM
[27]
  TGI: > 100 µM
[28]
  TGI: > 100 µM
[30]
  TGI: > 100 µM
[34]
  TGI: > 100 µM
[35]
  TGI: > 100 µM
[36]
  TGI: > 100 µM
[37]
  TGI: > 100 µM
[38]
  TGI: > 100 µM
[58]
  TGI: > 100 µM
[40]
  TGI: > 100 µM
[41]
  TGI: > 100 µM
[42]
  TGI: > 100 µM
[43]
  TGI: > 100 µM
[44]
  TGI: > 100 µM
[45]
  TGI: > 100 µM
[46]
  TGI: > 100 µM
[47]
  TGI: > 100 µM
[48]
  TGI: > 100 µM
[49]
  TGI: > 100 µM
[50]
  TGI: > 100 µM
[51]
  TGI: > 100 µM
[52]
  TGI: > 100 µM
